Experiments:
Experiment in all cases: relative viability (nuclei count vs DMSO), 5 days (fraction); higher = more cells survive
Shikonin + Olaparib = compound: CC(C)=CC[C@@H](O)C1=CC(=O)c2c(O)ccc(O)c2C1=O [Shikonin] + O=C(c1cc(Cc2n[nH]c(=O)c3ccccc23)ccc1F)N1CCN(C(=O)C2CC2)CC1 [Olaparib] (partner 8 µM)
Procedure, shortened: (§1)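 Five library-drug doses in √10 steps were combined with a fixed anchor-drug dose, or a single drug was given alone, by pin tool to lung cancer cell lines in 1536-well plates the day after seeding. Nuclei were stained and counted after 5 days. Relative viability is the nuclei count in treated wells over that in vehicle wells, taken as the median of duplicate plates.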

Shikonin + Luminespib = compound: CC(C)=CC[C@@H](O)C1=CC(=O)c2c(O)ccc(O)c2C1=O [Shikonin] + CCNC(=O)c1noc(-c2cc(C(C)C)c(O)cc2O)c1-c1ccc(CN2CCOCC2)cc1 [Luminespib] (partner 0.01 µM)
Procedure, shortened: as §1

[1] = compound: CC(C)N(CCCNC(=O)Nc1ccc(C(C)(C)C)cc1)C[C@H]1O[C@@H](n2ccc3c(N)ncnc32)[C@H](O)[C@@H]1O + C[C@]1(O)C[C@@H](c2nc(-c3ccc4ccc(-c5ccccc5)nc4c3)c3c(N)nccn32)C1 [Linsitinib] (partner 1 µM)
Procedure, shortened: as §1

[2] = compound: CC(C)N(CCCNC(=O)Nc1ccc(C(C)(C)C)cc1)C[C@H]1O[C@@H](n2ccc3c(N)ncnc32)[C@H](O)[C@@H]1O + Nc1ncn([C@H]2C[C@H](O)[C@@H](CO)O2)c(=O)n1 [Decitabine] (partner 2 µM)
Procedure, shortened: as §1

## NCI-H1793
Shikonin + Olaparib; first compound 0.01 µM
  relative viability: 1.12
Shikonin + Olaparib; first compound 0.1 µM
  relative viability: 0.995
Shikonin + Olaparib; first compound 0.3162 µM
  relative viability: 1
Shikonin + Olaparib; first compound 1 µM
  relative viability: 0.914
Shikonin + Luminespib; first compound 0.01 µM
  relative viability: 0.164
Shikonin + Luminespib; first compound 0.1 µM
  relative viability: 0.196
Shikonin + Luminespib; first compound 0.3162 µM
  relative viability: 0.155
Shikonin + Luminespib; first compound 1 µM
  relative viability: 0.535
[1]; first compound 0.08 µM
  relative viability: 0.818
[1]; first compound 0.8 µM
  relative viability: 0.747
[1]; first compound 2.53 µM
  relative viability: 0.86
[1]; first compound 8 µM
  relative viability: 0.784
[2]; first compound 0.08 µM
  relative viability: 0.481
[2]; first compound 0.8 µM
  relative viability: 0.77
[2]; first compound 2.53 µM
  relative viability: 0.537
[2]; first compound 8 µM
  relative viability: 0.359

## NCI-H1915
Shikonin + Olaparib; first compound 0.01 µM
  relative viability: 0.254
Shikonin + Olaparib; first compound 0.1 µM
  relative viability: 0.268
Shikonin + Olaparib; first compound 0.3162 µM
  relative viability: 0.257
Shikonin + Olaparib; first compound 1 µM
  relative viability: 0.245
Shikonin + Luminespib; first compound 0.01 µM
  relative viability: 1
Shikonin + Luminespib; first compound 0.1 µM
  relative viability: 0.758
Shikonin + Luminespib; first compound 0.3162 µM
  relative viability: 0.849
Shikonin + Luminespib; first compound 1 µM
  relative viability: 0.85
[1]; first compound 0.08 µM
  relative viability: 1.13
[1]; first compound 0.253 µM
  relative viability: 1.15
[1]; first compound 0.8 µM
  relative viability: 1.08
[1]; first compound 2.53 µM
  relative viability: 1.06
[1]; first compound 8 µM
  relative viability: 1.03
[2]; first compound 0.08 µM
  relative viability: 0.274
[2]; first compound 0.253 µM
  relative viability: 0.289
[2]; first compound 0.8 µM
  relative viability: 0.269
[2]; first compound 2.53 µM
  relative viability: 0.25
[2]; first compound 8 µM
  relative viability: 0.267

## NCI-H1944
Shikonin + Olaparib; first compound 0.01 µM
  relative viability: 0.428
Shikonin + Olaparib; first compound 0.1 µM
  relative viability: 0.408
Shikonin + Olaparib; first compound 0.3162 µM
  relative viability: 0.414
Shikonin + Olaparib; first compound 1 µM
  relative viability: 0.387
Shikonin + Luminespib; first compound 0.01 µM
  relative viability: 0.704
Shikonin + Luminespib; first compound 0.1 µM
  relative viability: 0.613
Shikonin + Luminespib; first compound 0.3162 µM
  relative viability: 0.889
Shikonin + Luminespib; first compound 1 µM
  relative viability: 0.8
[1]; first compound 0.08 µM
  relative viability: 1.09
[1]; first compound 0.253 µM
  relative viability: 1.15
[1]; first compound 0.8 µM
  relative viability: 1.17
[1]; first compound 2.53 µM
  relative viability: 1.22
[1]; first compound 8 µM
  relative viability: 1.16
[2]; first compound 0.08 µM
  relative viability: 0.451
[2]; first compound 0.253 µM
  relative viability: 0.438
[2]; first compound 0.8 µM
  relative viability: 0.471
[2]; first compound 2.53 µM
  relative viability: 0.394
[2]; first compound 8 µM
  relative viability: 0.423

## NCI-H1975
Shikonin + Olaparib; first compound 0.01 µM
  relative viability: 0.815
Shikonin + Olaparib; first compound 0.1 µM
  relative viability: 0.836
Shikonin + Olaparib; first compound 0.3162 µM
  relative viability: 0.955
Shikonin + Olaparib; first compound 1 µM
  relative viability: 0.715
Shikonin + Luminespib; first compound 0.01 µM
  relative viability: 0.178
Shikonin + Luminespib; first compound 0.1 µM
  relative viability: 0.27
Shikonin + Luminespib; first compound 0.3162 µM
  relative viability: 0.248
Shikonin + Luminespib; first compound 1 µM
  relative viability: 0.167
[1]; first compound 0.08 µM
  relative viability: 0.842
[1]; first compound 0.253 µM
  relative viability: 0.902
[1]; first compound 0.8 µM
  relative viability: 0.744
[1]; first compound 2.53 µM
  relative viability: 0.836
[1]; first compound 8 µM
  relative viability: 0.878
[2]; first compound 0.08 µM
  relative viability: 0.367
[2]; first compound 0.253 µM
  relative viability: 0.44
[2]; first compound 0.8 µM
  relative viability: 0.273
[2]; first compound 2.53 µM
  relative viability: 0.354
[2]; first compound 8 µM
  relative viability: 0.376

## NCI-H1993
Shikonin + Olaparib; first compound 0.01 µM
  relative viability: 0.92
Shikonin + Olaparib; first compound 0.1 µM
  relative viability: 0.943
Shikonin + Olaparib; first compound 0.3162 µM
  relative viability: 1.12
Shikonin + Olaparib; first compound 1 µM
  relative viability: 1.32
Shikonin + Luminespib; first compound 0.01 µM
  relative viability: 1.08
Shikonin + Luminespib; first compound 0.1 µM
  relative viability: 0.834
Shikonin + Luminespib; first compound 0.3162 µM
  relative viability: 0.834
Shikonin + Luminespib; first compound 1 µM
  relative viability: 0.531
[1]; first compound 0.08 µM
  relative viability: 0.806
[1]; first compound 0.253 µM
  relative viability: 0.761
[1]; first compound 0.8 µM
  relative viability: 0.738
[1]; first compound 2.53 µM
  relative viability: 0.752
[1]; first compound 8 µM
  relative viability: 0.654
[2]; first compound 0.08 µM
  relative viability: 0.482
[2]; first compound 0.8 µM
  relative viability: 0.564
[2]; first compound 2.53 µM
  relative viability: 0.6
[2]; first compound 8 µM
  relative viability: 0.559

## NCI-H2009
Shikonin + Olaparib; first compound 0.01 µM
  relative viability: 0.774
Shikonin + Olaparib; first compound 0.1 µM
  relative viability: 0.691
Shikonin + Olaparib; first compound 0.3162 µM
  relative viability: 0.624
Shikonin + Olaparib; first compound 1 µM
  relative viability: 0.497
Shikonin + Luminespib; first compound 0.01 µM
  relative viability: 1.1
Shikonin + Luminespib; first compound 0.1 µM
  relative viability: 1.16
Shikonin + Luminespib; first compound 0.3162 µM
  relative viability: 1
Shikonin + Luminespib; first compound 1 µM
  relative viability: 0.876
[1]; first compound 0.08 µM
  relative viability: 1.18
[1]; first compound 0.253 µM
  relative viability: 1.21
[1]; first compound 0.8 µM
  relative viability: 1.18
[1]; first compound 2.53 µM
  relative viability: 1.13
[1]; first compound 8 µM
  relative viability: 0.958
[2]; first compound 0.08 µM
  relative viability: 0.476
[2]; first compound 0.253 µM
  relative viability: 0.418
[2]; first compound 0.8 µM
  relative viability: 0.438
[2]; first compound 2.53 µM
  relative viability: 0.39
[2]; first compound 8 µM
  relative viability: 0.372

## NCI-H2023
Shikonin + Olaparib; first compound 0.01 µM
  relative viability: 0.478
Shikonin + Olaparib; first compound 0.1 µM
  relative viability: 0.559
Shikonin + Olaparib; first compound 0.3162 µM
  relative viability: 0.622
Shikonin + Olaparib; first compound 1 µM
  relative viability: 0.437
Shikonin + Luminespib; first compound 0.01 µM
  relative viability: 0.969
Shikonin + Luminespib; first compound 0.1 µM
  relative viability: 0.851
Shikonin + Luminespib; first compound 0.3162 µM
  relative viability: 0.982
Shikonin + Luminespib; first compound 1 µM
  relative viability: 0.59
[1]; first compound 0.08 µM
  relative viability: 0.661
[1]; first compound 0.253 µM
  relative viability: 0.734
[1]; first compound 0.8 µM
  relative viability: 0.72
[1]; first compound 2.53 µM
  relative viability: 0.709
[1]; first compound 8 µM
  relative viability: 0.652
[2]; first compound 0.08 µM
  relative viability: 0.256
[2]; first compound 0.253 µM
  relative viability: 0.25
[2]; first compound 0.8 µM
  relative viability: 0.242
[2]; first compound 2.53 µM
  relative viability: 0.205
[2]; first compound 8 µM
  relative viability: 0.191

## NCI-H2085
Shikonin + Olaparib; first compound 0.01 µM
  relative viability: 0.756
Shikonin + Olaparib; first compound 0.1 µM
  relative viability: 0.82
Shikonin + Olaparib; first compound 0.3162 µM
  relative viability: 0.725
Shikonin + Olaparib; first compound 1 µM
  relative viability: 0.76
Shikonin + Luminespib; first compound 0.01 µM
  relative viability: 0.443
Shikonin + Luminespib; first compound 0.1 µM
  relative viability: 0.471
Shikonin + Luminespib; first compound 0.3162 µM
  relative viability: 0.336
Shikonin + Luminespib; first compound 1 µM
  relative viability: 0.379
[1]; first compound 0.08 µM
  relative viability: 0.912
[1]; first compound 0.253 µM
  relative viability: 0.949
[1]; first compound 0.8 µM
  relative viability: 0.805
[1]; first compound 2.53 µM
  relative viability: 0.958
[1]; first compound 8 µM
  relative viability: 0.943
[2]; first compound 0.08 µM
  relative viability: 0.55
[2]; first compound 0.253 µM
  relative viability: 0.486
[2]; first compound 0.8 µM
  relative viability: 0.561
[2]; first compound 2.53 µM
  relative viability: 0.542
[2]; first compound 8 µM
  relative viability: 0.546

## NCI-H2087
Shikonin + Olaparib; first compound 0.01 µM
  relative viability: 0.696
Shikonin + Olaparib; first compound 0.1 µM
  relative viability: 0.544
Shikonin + Olaparib; first compound 0.3162 µM
  relative viability: 0.592
Shikonin + Olaparib; first compound 1 µM
  relative viability: 0.551
Shikonin + Luminespib; first compound 0.01 µM
  relative viability: 0.185
Shikonin + Luminespib; first compound 0.1 µM
  relative viability: 0.167
Shikonin + Luminespib; first compound 0.3162 µM
  relative viability: 0.156
Shikonin + Luminespib; first compound 1 µM
  relative viability: 0.153
[1]; first compound 0.08 µM
  relative viability: 1.06
[1]; first compound 0.253 µM
  relative viability: 1.14
[1]; first compound 0.8 µM
  relative viability: 0.998
[1]; first compound 2.53 µM
  relative viability: 1.18
[1]; first compound 8 µM
  relative viability: 0.965
[2]; first compound 0.08 µM
  relative viability: 0.272
[2]; first compound 0.253 µM
  relative viability: 0.303
[2]; first compound 0.8 µM
  relative viability: 0.232
[2]; first compound 2.53 µM
  relative viability: 0.336
[2]; first compound 8 µM
  relative viability: 0.256
